Assay [1] has as its target human recombinant DAT (Homo sapiens, UniProt Q01959). The assay can be described thus: DAT radioligand binding assay (scintillation proximity, [3H]WIN-35428). As for the experimental part: (§1) Affinity of the compounds for monoamine transporters was determined by in vitro radioligand binding assays using cell membrane preparations derived from HEK293 cell lines stably expressing human recombinant DAT, NET or SERT receptor (Suven Life Sciences, Hyderabad, India).
(§2) Stable DAT cell lines were generated following procedures described in Eshelman et al., Molecular Pharmacology 45, 312-316; 1994. Stable NET cell lines were generated following procedures described in Pacholczyk et al., Nature 350, 350-354, 1991 and Galli et al., Journal Exp. Biol. 198, 2197-2212, 1995. Stable SERT cell lines were generated following procedures described in Ramamoorthy et al., Proc Natl Acad Sci USA 90, 2542-246, 1993.
(§3) Cell membranes were obtained from the above-referenced cell lines by manually homogenizing previously frozen cell pellets in Tris-HCl buffer and serially centrifugating and re-extracting the preparations according procedures described in Subbu et al., Journal Pharmacol ExpTher 327, 982-990, 2008.
(§4) A scintillation proximity assay was used to measure receptor binding. Homogenized membrane preparations (final protein concentration 8-15 ug/well) were pre-incubated with WGA PVT SPA beads (0.5 mg/well) for 5 minutes. Binding was initiated by adding high affinity ligands and test compounds (0.1 nM to 10 μM) or reference/positive control ligands to the membrane-bead complex. Plates were incubated for three hours and raw data counts recorded using a liquid scintillation counter (MicroBetaTriLux Counter, Perkin Elmer). Inhibition constants (Ki) were calculated using GraphPad Prism software (version 4.0).
DAT receptor binding was determined using procedures described in Skolnick et al., European Journal of Pharmacology, 461(2-3):99-104, 2003; and Eshleman et al., The Journal of Pharmacology and Experimental Therapeutics 289:877-885, 1999. A mixture of [3H]WIN-35428 (N-methyl 3H-WIN-35428, Perkin Elmer) and bead-membrane complex was added to wells containing test compound. Wells containing nomifensine maleate ([…], Sigma) were used to define non-specific […] binding. Total radioligand was defined by assay buffer containing 1% DMSO in the presence of [3H]WIN-35428. DAT Ki values were calculated using GraphPad Prism software (version 4.0).
(In general: In a scintillation proximity assay essentially only radioactivity close to the scintillant gives light.)

Assay [2] has as its target T1, human recombinant NET (Homo sapiens, UniProt P23975).
T1 construct: membranes)
Briefly: NET radioligand binding assay (scintillation proximity, [3H]nisoxetine). On the procedure: as §1, §2, §3, §4
NET receptor binding was determined using procedures described in Mason et al., The Journal of Pharmacology and Experimental Therapeutics 323:720-729, 2007; and Eshleman et al., The Journal of Pharmacology and Experimental Therapeutics289:877-885, 1999. A mixture of [3H]nisoxetine hydrochloride (N-methyl-[3H]nisoxetine, Perkin Elmer) and bead-membrane complex was added to wells containing test compound. Wells containing unlabeled nisoxetine (100 uM, Sigma) were used to define non-specific NET binding. Total radioligand was defined using assay buffer containing 1% DMSO in the presence of [3H]nisoxetine. NET Ki values were calculated using GraphPad Prism software (version 4.0).

For assay [3], the target named is T2, human recombinant SERT (Homo sapiens, UniProt P31645).
T2 construct: membranes)
The assay can be described thus: SERT radioligand binding assay (scintillation proximity, [3H]citalopram). On the procedure:
as §1, §2, §3, §4
SERT receptor binding was determined using procedures described in Owens et al., The Journal of Pharmacology and Experimental Therapeutics 283:1305-1322, 1997. A mixture of [3H]citalopram (N-methyl-[3H]citalopram, Perkin Elmer) and bead-membrane complex was added to wells containing test compound. Non-specific binding was determined using wells containing venlafaxine hydrochloride (100 uM, Sigma). Total radioligand was determined using assay buffer containing 1% DMSO in the presence of [3H]citalopram. SERT Ki values were calculated using GraphPad Prism software (version 4.0).

Where [4] appears, read: HEK293 cell membranes expressing human recombinant NET, [3H]nisoxetine, SPA, read-out: NET Ki.
Setting [5] is: HEK293 cell membranes expressing human recombinant SERT, [3H]citalopram, SPA, read-out: SERT Ki.

This note sets out measurements from US20150057443A1, “Cycloalkyl Amine Compounds” (Prexa Pharmaceuticals, Inc., priority 2013, published 2015).

Read-outs that look alike come from different tables or passages of the source.

Sequence of human recombinant DAT (Q01959 whole entry): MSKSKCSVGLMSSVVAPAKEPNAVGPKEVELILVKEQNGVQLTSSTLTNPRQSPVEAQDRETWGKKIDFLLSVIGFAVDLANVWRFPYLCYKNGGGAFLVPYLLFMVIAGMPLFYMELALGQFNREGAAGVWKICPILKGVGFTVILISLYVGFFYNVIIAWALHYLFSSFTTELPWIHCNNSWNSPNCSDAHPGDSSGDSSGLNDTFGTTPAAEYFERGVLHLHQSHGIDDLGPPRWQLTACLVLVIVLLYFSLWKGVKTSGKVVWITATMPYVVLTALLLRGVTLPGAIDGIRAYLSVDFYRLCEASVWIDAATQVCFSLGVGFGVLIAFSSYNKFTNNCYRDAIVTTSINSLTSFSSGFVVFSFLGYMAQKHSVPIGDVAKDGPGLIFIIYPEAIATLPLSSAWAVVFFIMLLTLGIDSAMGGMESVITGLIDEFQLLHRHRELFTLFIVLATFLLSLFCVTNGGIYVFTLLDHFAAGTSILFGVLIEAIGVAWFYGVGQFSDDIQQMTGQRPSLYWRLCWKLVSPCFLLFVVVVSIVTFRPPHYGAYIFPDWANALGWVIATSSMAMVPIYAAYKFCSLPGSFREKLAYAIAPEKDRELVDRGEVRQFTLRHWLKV
T1 sequence (P23975 whole entry): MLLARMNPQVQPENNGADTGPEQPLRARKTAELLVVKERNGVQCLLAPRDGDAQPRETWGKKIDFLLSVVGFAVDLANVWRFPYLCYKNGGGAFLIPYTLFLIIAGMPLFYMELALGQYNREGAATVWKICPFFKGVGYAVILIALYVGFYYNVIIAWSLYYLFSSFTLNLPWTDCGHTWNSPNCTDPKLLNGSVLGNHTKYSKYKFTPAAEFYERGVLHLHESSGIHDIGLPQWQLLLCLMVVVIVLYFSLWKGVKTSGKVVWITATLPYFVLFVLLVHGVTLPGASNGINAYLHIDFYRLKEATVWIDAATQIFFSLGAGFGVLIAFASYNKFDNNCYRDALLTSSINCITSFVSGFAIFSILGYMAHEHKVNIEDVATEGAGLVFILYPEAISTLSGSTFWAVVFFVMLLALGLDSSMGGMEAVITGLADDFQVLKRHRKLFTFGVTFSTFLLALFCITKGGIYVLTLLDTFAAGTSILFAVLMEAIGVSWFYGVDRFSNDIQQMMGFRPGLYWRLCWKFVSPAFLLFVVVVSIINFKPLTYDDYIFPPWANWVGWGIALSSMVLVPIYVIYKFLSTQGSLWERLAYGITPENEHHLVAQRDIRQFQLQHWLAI
T2 sequence (P31645 whole entry): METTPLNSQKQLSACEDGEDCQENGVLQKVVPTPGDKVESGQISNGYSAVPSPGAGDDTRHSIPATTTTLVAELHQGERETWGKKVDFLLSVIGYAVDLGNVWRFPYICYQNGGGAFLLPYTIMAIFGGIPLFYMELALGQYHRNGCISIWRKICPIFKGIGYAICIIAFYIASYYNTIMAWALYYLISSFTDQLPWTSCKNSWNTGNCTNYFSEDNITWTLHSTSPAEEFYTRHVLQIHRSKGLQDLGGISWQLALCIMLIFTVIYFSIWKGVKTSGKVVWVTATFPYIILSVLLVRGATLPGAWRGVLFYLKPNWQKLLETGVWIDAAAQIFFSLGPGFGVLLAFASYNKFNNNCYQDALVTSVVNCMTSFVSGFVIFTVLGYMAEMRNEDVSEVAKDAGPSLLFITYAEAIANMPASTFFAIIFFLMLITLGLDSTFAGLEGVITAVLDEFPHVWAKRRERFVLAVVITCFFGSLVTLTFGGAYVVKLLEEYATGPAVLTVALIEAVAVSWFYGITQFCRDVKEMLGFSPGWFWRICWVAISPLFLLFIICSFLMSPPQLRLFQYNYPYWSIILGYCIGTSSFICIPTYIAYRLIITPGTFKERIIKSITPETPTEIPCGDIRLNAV

For the compound `CC1(C)COCCN1CC(O)C1(c2ccc(Cl)c(Cl)c2)CCC1` (stereo not drawn) [Compound 31, 4-{2-[1-(3,4-dichlorophenyl)cyclobutyl]-2-hydroxyethyl}-3,3-dimethylmorpholin-4-ium chloride], the Ki was < 10 nM in assay [1], 11 to 100 nM in assay [2] (setting [4]) and 11 to 100 nM in assay [3] (setting [5]).

On to `N#CC1CCCN(CC(O)C2(c3ccc(Cl)c(Cl)c3)CCC2)C1` (stereo not drawn) [Compound 32, 1-{2-[1-(3,4-dichlorophenyl)cyclobutyl]-2-hydroxyethyl}piperidine-3-carbonitrile], for which the Ki in assay [1] is < 10 nM; in assay [2] (setting [4]), 101 to 500 nM; in assay [3] (setting [5]), 11 to 100 nM.

As for `COC1CCCN(CC(O)C2(c3ccc(Cl)c(Cl)c3)CCC2)C1` (stereo not drawn) [Compound 33, 1-{2-[1-(3,4-Dichlorophenyl)cyclobutyl]-2-hydroxyethyl}-3-methoxypiperidin-1-ium chloride], the Ki is < 10 nM in assay [1], 101 to 500 nM in assay [2] (setting [4]) and > 500 nM in assay [3] (setting [5]).

With `CC1(NCC(O)C2(c3ccc(Cl)c(Cl)c3)CCC2)CC1` (stereo not drawn) [Compound 34, N-{2-[1-(3,4-Dichlorophenyl)cyclobutyl]-2-hydroxyethyl}-1-methylcyclopropan-1-aminium chloride], the Ki in assay [1] is 11 to 100 nM; in assay [2] (setting [4]), 11 to 100 nM; in assay [3] (setting [5]) it was 101 to 500 nM.

For the compound `OC(CNC1CC1)C1(c2ccc(Cl)c(Cl)c2)CCC1` (stereo not drawn) [Compound 35, N-{2-[1-(3,4-Dichlorophenyl)cyclobutyl]-2-hydroxyethyl}cyclopropanaminium chloride], the Ki in assay [1] was 11 to 100 nM; in assay [2] (setting [4]), 101 to 500 nM; in assay [3] (setting [5]), > 500 nM.

`OC(CNC1CCC1)C1(c2ccc(Cl)c(Cl)c2)CCC1` (stereo not drawn) [Compound 36, N-{2-[1-(3,4-Dichlorophenyl)cyclobutyl]-2-hydroxyethyl}cyclobutanaminium chloride]: the figures for the Ki in assay [1], in assay [2] (setting [4]) and in assay [3] (setting [5]) were 11 to 100 nM, 101 to 500 nM and 101 to 500 nM, respectively.

As to `CC1(NCC(O)C2(c3ccc(Cl)c(Cl)c3)CCC2)CCC1` (stereo not drawn) [Compound 38, N-{2-[1-(3,4-Dichlorophenyl)cyclobutyl]-2-hydroxyethyl}-1-methylcyclobutan-1-aminium chloride], the Ki in assay [1] is < 10 nM; in assay [2] (setting [4]), 11 to 100 nM; in assay [3] (setting [5]) it was 101 to 500 nM.

For the compound `OC(CN1CC2CC(F)C1C2)C1(c2ccc(Cl)c(Cl)c2)CCC1` (stereo not drawn) [Compound 39, 2-{2-[1-(3,4-Dichlorophenyl)cyclobutyl]-2-hydroxyethyl}-6-fluoro-2-azabicyclo[2.2.1]heptan-2-ium chloride], the Ki in assay [1] was 101 to 500 nM; in assay [2] (setting [4]) it was 101 to 500 nM; in assay [3] (setting [5]) it was > 500 nM.

Consider `CC(F)C(C)NCC(O)C1(c2ccc(Cl)c(Cl)c2)CCC1` (stereo not drawn) [Compound 42, {2-[1-(3,4-dichlorophenyl)cyclobutyl]-2-hydroxyethyl}(3-fluorobutan-2-yl)azanium chloride], for which the figures for the Ki in assay [1], in assay [2] (setting [4]) and in assay [3] (setting [5]) were 11 to 100 nM, 101 to 500 nM and 101 to 500 nM, respectively.

Turning to `CCN(CC(O)C1(c2ccc(Cl)c(Cl)c2)CCC1)C(C)C` (stereo not drawn) [Compound 47, {2-[1-(3,4-Dichlorophenyl)cyclobutyl]-2-hydroxyethyl}(ethyl)(propan-2-yl)azanium chloride], the results for the Ki in assay [1], in assay [2] (setting [4]) and in assay [3] (setting [5]) were 11 to 100 nM, 11 to 100 nM and 101 to 500 nM, respectively.

As to `CCCN(CC)CC(O)C1(c2ccc(Cl)c(Cl)c2)CCC1` (stereo not drawn) [Compound 48, {2-[1-(3,4-Dichlorophenyl)cyclobutyl]-2-hydroxyethyl}(ethyl)propylazanium chloride], the figures for the Ki in assay [1], in assay [2] (setting [4]) and in assay [3] (setting [5]) were 11 to 100 nM, 11 to 100 nM and 101 to 500 nM, respectively.

As to `COC(CN1CCCCC1)C1(c2ccc(Cl)c(Cl)c2)CCC1` (stereo not drawn) [Compound 59, 1-{2-[1-(3,4-dichlorophenyl)cyclobutyl]-2-methoxyethyl}piperidin-1-ium chloride], the Ki in assay [1], in assay [2] (setting [4]) and in assay [3] (setting [5]) was > 500 nM in each case.

Regarding `OC(CN1CCCCC1)C1(c2ccc(Cl)c(Cl)c2)CCCC1` (stereo not drawn) [Compound 60, 1-{2-[1-(3,4-dichlorophenyl)cyclopentyl]-2-hydroxyethyl}piperidin-1-ium chloride], the Ki in assay [1] lay in the range of 11 to 100 nM; in assay [2] (setting [4]) it was 101 to 500 nM; in assay [3] (setting [5]), 101 to 500 nM.

Turning to `O=C(CN1CCCCC1)C1(c2ccc(Cl)c(Cl)c2)CCCC1` [Compound 61, 1-{2-[1-(3,4-dichlorophenyl)cyclopentyl]-2-oxoethyl}piperidin-1-ium chloride], the Ki in assay [1] was 11 to 100 nM; in assay [2] (setting [4]), > 500 nM; in assay [3] (setting [5]) it was > 500 nM.

In the case of `O=C(CN1CCCCC1)C1(c2ccc(Cl)cc2)CCC1` [Compound 66], the Ki in assay [1] (HEK293 cell membranes expressing human recombinant DAT, [3H]WIN-35428, SPA, read-out: DAT Ki) was > 500 nM; in assay [2], > 500 nM; in assay [3], > 500 nM.

Consider `O=C(CN1CCCCC1)C1(c2ccc(Cl)c(Cl)c2)CCC1` [Compound 67], for which the values for the Ki in assay [1], in assay [2] (setting [4]) and in assay [3] (setting [5]) were 11 to 100 nM, > 500 nM and 101 to 500 nM, respectively.

Regarding `O=C(CN1CCCCC1)C1(c2ccccc2)CCC1` [Compound 68, 1-[2-oxo-2-(1-phenylcyclobutyl)ethyl]piperidin-1-ium chloride], the Ki in assay [1], in assay [2] (setting [4]) and in assay [3] (setting [5]) was > 500 nM in each case.

With `O=C(CN1CCCCC1)C1(c2cccc(Cl)c2)CCC1` [Compound 69], the Ki in assay [1], in assay [2] (setting [4]) and in assay [3] (setting [5]) was > 500 nM each time.

In the case of `CC(O)(CN1CCCCC1)C1(c2ccc(Cl)c(Cl)c2)CCC1` (stereo not drawn) [Compound 71, 1-{2-[1-(3,4-dichlorophenyl)cyclobutyl]-2-hydroxypropyl}piperidin-1-ium chloride], the Ki in assay [1] is 11 to 100 nM; in assay [2] (setting [4]), 101 to 500 nM; in assay [3] (setting [5]) it was > 500 nM.

Broadly, the Ki is a measure of affinity in units of concentration, obtained from inhibition or displacement.
